Data taken from ChEMBL document CHEMBL6109101, “Synthesis and bioactivity of cyclic peptide GG-8-6 analogues as anti-hepatocellular carcinoma agents” (Eur J Med Chem, 2025).
Active and inactive are the calls of the source. No cut-off for these calls is given here.

Columns and labels:
[1] = Toxicity in nude mouse implanted with human MHCC97H cells assessed as body weight at 10 mg/kg, po administered daily for 3 weeks and measured immediately (reference value: 25.05 g); type: organism-based; conditions: in vivo, 504 h
[2] = Toxicity in nude mouse implanted with human MHCC97H cells assessed as spleen damage at 5 to 10 mg/kg, po administered daily for 3 weeks by H and E staining based analysis; type: organism-based; conditions: in vivo, 504 h, dose 5-10 mg/kg
[3] = Toxicity in nude mouse implanted with human MHCC97H cells assessed as lung damage at 5 to 10 mg/kg, po administered daily for 3 weeks by H and E staining based analysis; type: organism-based; conditions: in vivo, 504 h, dose 5-10 mg/kg
[4] = Toxicity in nude mouse implanted with human MHCC97H cells assessed as heart damage at 5 to 10 mg/kg, po administered daily for 3 weeks by H and E staining based analysis; type: organism-based; conditions: in vivo, 504 h, dose 5-10 mg/kg
[5] = Toxicity in nude mouse implanted with human MHCC97H cells assessed as body weight at 10 mg/kg, po administered daily for 3 weeks and measured at day 22 (reference value: 26.38 g); type: organism-based; conditions: in vivo, 1032 h, time 43 day
[6] = Toxicity in nude mouse implanted with human MHCC97H cells assessed as liver damage at 5 to 10 mg/kg, po administered daily for 3 weeks by H and E staining based analysis; type: organism-based; conditions: in vivo, 504 h, dose 5-10 mg/kg
[7] = Toxicity in nude mouse implanted with human MHCC97H cells assessed as kidney damage at 5 to 10 mg/kg, po administered daily for 3 weeks by H and E staining based analysis; type: organism-based; conditions: in vivo, 504 h, dose 5-10 mg/kg
[8] = Toxicity in nude mouse implanted with human MHCC97H cells assessed as body weight at 5 mg/kg, po administered daily for 3 weeks and measured at day 22 (reference value: 26.38 g); type: organism-based; conditions: in vivo, 1032 h, time 43 day
Huh-7 = assay: Cytotoxicity against human Huh-7 cells assessed as inhibition of cell proliferation incubated for 48 hrs by MTT assay; type: functional, cell-based; conditions: Huh-7, 48 h
[9] = Toxicity in nude mouse implanted with human MHCC97H cells assessed as body weight at 5 mg/kg, po administered daily for 3 weeks and measured immediately (reference value: 25.05 g); type: organism-based; conditions: in vivo, 504 h
HepG2 = assay: Cytotoxicity against human HepG2 cells assessed as inhibition of cell proliferation incubated for 48 hrs by MTT assay; type: functional, cell-based; conditions: HepG2, 48 h
HCCLM3 [10] = assay: Cytotoxicity against human HCCLM3 cells assessed as inhibition of cell proliferation incubated for 48 hrs by MTT assay; type: functional, cell-based; conditions: HCCLM3, 48 h
MHCC97H [11] = assay: Cytotoxicity against human MHCC97H cells assessed as inhibition of cell proliferation incubated for 48 hrs by MTT assay; type: functional, cell-based
HCCLM3 [12] = assay: Cytotoxicity against human HCCLM3 cells assessed as cell viability up to 40 uM measured at 12 hrs by MTT assay; type: functional, cell-based
HCCLM3 [13] = assay: Cytotoxicity against human HCCLM3 cells assessed as cell viability incubated at 12 to 48 hrs hrs by MTT assay; type: functional, cell-based; conditions: dose <= 40.0 µM, time 12-48 hrs
MHCC97H [14] = assay: Cytotoxicity against human MHCC97H cells assessed as reduction in cell viability at 40 uM by MTT assay; type: functional, cell-based; conditions: time 48.0 hrs
MHCC97H [15] = assay: Cytotoxicity against human MHCC97H cells assessed as cell viability incubated at 12 to 48 hrs hrs by MTT assay; type: functional, cell-based; conditions: dose <= 40.0 µM, time 12-48 hrs
HCCLM3 [16] = assay: Cytotoxicity against human HCCLM3 cells assessed as cell viability up to 40 uM by MTT assay; type: functional, cell-based; conditions: time 12-48 hrs
MHCC97H [17] = assay: Cytotoxicity against human MHCC97H cells assessed as cell viability up to 40 uM by MTT assay; type: functional, cell-based; conditions: time 12-48 hrs
HCCLM3 [18] = assay: Cytotoxicity against human HCCLM3 cells assessed as reduction in cell viability up to 40 uM measured at 48 hrs by MTT assay; type: functional, cell-based
HCCLM3 [19] = assay: Cytotoxicity against human HCCLM3 cells assessed as reduction in cell viability at 40 uM by MTT assay; type: functional, cell-based; conditions: time 48.0 hrs
MHCC97H [20] = assay: Cytotoxicity against human MHCC97H cells assessed as cell viability up to 40 uM measured at 12 hrs by MTT assay; type: functional, cell-based
MHCC97H [21] = assay: Antitumor activity against human MHCC97H cells xenografted in nude mouse assessed as increase in apoptotic cells at 15 mg/kg, po administered daily for 3 weeks by TUNEL staining based assay; type: functional, organism-based
MHCC97H [22] = assay: Cytotoxicity against human MHCC97H cells assessed as cell viability up to 40 uM measured at 24 to 48 hrs by MTT assay; type: functional, cell-based; conditions: time 24-48 hrs
HCCLM3 [23] = assay: Cytotoxicity against human HCCLM3 cells assessed as reduction in cell viability at 40 uM measured at 48 hrs by MTT assay; type: functional, cell-based
MHCC97H [24] = assay: Cytotoxicity against human MHCC97H cells assessed as reduction in cell viability up to 40 uM measured at 48 hrs by MTT assay; type: functional, cell-based
MHCC97H [25] = assay: Cytotoxicity against human MHCC97H cells assessed as reduction in cell viability at 40 uM measured at 48 hrs by MTT assay; type: functional, cell-based
HCCLM3 [26] = assay: Cytotoxicity against human HCCLM3 cells assessed as cell viability up to 40 uM measured at 24 to 48 hrs by MTT assay; type: functional, cell-based; conditions: time 24-48 hrs
HCCLM3 [27] = assay: Cytotoxicity against human HCCLM3 cells assessed as reduction in cell viability at 40 uM measured after 48 hrs by MTT assay; type: functional, cell-based
MHCC97H [28] = assay: Antitumor activity against human MHCC97H cells xenografted in nude mouse assessed as increase in apoptotic cells at 5 to 10 mg/kg, po administered daily for 3 weeks by TUNEL staining based assay; type: functional, organism-based; conditions: dose 5-10 mg/kg
MHCC97H [29] = assay: Cytotoxicity against human MHCC97H cells assessed as reduction in cell viability at 40 uM measured after 48 hrs by MTT assay; type: functional, cell-based

Row | Structure (SMILES) | Activity (HCCLM3 [12]) | Activity (HCCLM3 [13]) | Activity (MHCC97H [15]) | Activity (HCCLM3 [16]) | Activity (MHCC97H [17]) | Activity (HCCLM3 [18]) | Activity (MHCC97H [20]) | Activity (MHCC97H [22]) | Activity (HCCLM3 [23]) | Activity (MHCC97H [24]) | Activity (MHCC97H [25]) | Activity (HCCLM3 [26]) | further results
1 | CC[C@H](C)[C@@H]1NC(=O)[C@@H]2CCCN2C(=O)[C@H](CC(C)C)NC(=O)[C@H](COC(C)(C)C)NC(=O)[C@H](CC(C)C)NC(=O)[C@H](C(C)C)NC(=O)[C@H](CC(C)C)NC(=O)[C@H](CC(C)C)NC(=O)[C@H](CC(C)C)NC1=O |  |  |  |  |  |  |  |  |  |  |  |  | Activity [1]: 25.6 g; Activity [2]: Non-toxic; Activity [3]: Non-toxic; Activity [4]: Non-toxic; Activity [5]: 26.43 g; Activity [6]: Non-toxic; Activity [7]: Non-toxic; Activity [8]: 26.7 g; IC50 (Huh-7): 3.29 µM; Activity [9]: 25.98 g; IC50 (HepG2): 3.29 µM; IC50 (HCCLM3 [10]): 4.6 µM; IC50 (MHCC97H [11]): 4.1 µM
2 | CC[C@@H](C)[C@H]1NC(=O)[C@@H]2CCCN2C(=O)[C@@H](CC(C)C)NC(=O)[C@H](CO)NC(=O)[C@@H](CC(C)C)NC(=O)[C@H](C(C)C)NC(=O)[C@H](CC(C)C)NC(=O)[C@H](CC(C)C)NC(=O)[C@H](CC(C)C)NC1=O | Active | Dose-dependent-effect | Dose-dependent-effect | Time-dependent-effect | Time-dependent-effect | Active | Active | Active | Active | Active | Active | Active | Activity (MHCC97H [14]): Time-dependent-effect; Activity (HCCLM3 [19]): Time-dependent-effect; Activity (MHCC97H [21]): Active
3 | CC[C@@H](C)[C@H]1NC(=O)[C@@H]2CCCN2C(=O)[C@@H](CC(C)C)NC(=O)[C@H](COC(C)(C)C)NC(=O)[C@@H](CC(C)C)NC(=O)[C@H](C(C)C)NC(=O)[C@H](CC(C)C)NC(=O)[C@H](CC(C)C)NC(=O)[C@H](CC(C)C)NC1=O | Active | Dose-dependent-effect | Dose-dependent-effect | Time-dependent-effect | Time-dependent-effect | Active | Active | Active | Active | Active | Active | Active | Activity (HCCLM3 [27]): Active; Activity (MHCC97H [28]): Active; Activity (MHCC97H [29]): Active
